Results reported in patent US20060025484A1 (priority 2003, published 2006).
Several values for one entry are separate records, joined by “and”; a condition that tells them apart may be missing. Equal values may be shown once.

Tests used:
pancreatic carcinoma = assay: Clinical phase II study in patients with pancreatic cancer; format: in vivo, human; set-up: key to Effect: partial remission (PR); minor response (MR)
From the text: • Pancreatic carcinoma • Clinical study: • Phase II: ¼ partial remission (PR) (44 weeks)
+1 minor response (MR) (23 weeks)
A minor response was obtained in another patient.

colorectal carcinoma = conditions: phase II; cited from earlier work
[1] = tested on: human tumor xenograft models; assay: Subcutaneously implanted human tumor xenograft models in the naked mouse; format: in vivo; conditions: s.c. human xenografts: soft tissue sarcomas, testicular tumors, thymomas, melanomas, mammary carcinomas, lung tumors, Wilms' tumors, renal carcinomas
From the text: Furthermore, the activity of HECNU has also been investigated in a number of subcutaneously implanted human tumor xenograft models in the naked mouse. […] These included soft tissue sarcomas, testicular tumors, thymomas, melanomas, mammary carcinomas, tumors of the lung, Wilms' tumors and renal carcinomas.

[2] = tested on: malignant supratentorial gliomas; conditions: cited from earlier work
[3] = tested on: tumors of the head and neck; assay: In-vitro experiments on tumors of the head and neck; format: cell-based
[4] = Organ toxicity (bone marrow, lungs, kidney); format: in vivo; conditions: in comparison with BCNU
From the text: (§1) It is known that bis-(2-chloroethyl)-1-nitrosourea (hereinafter also referred to as BCNU) can be used in the treatment of various types of cancer. BCNU is lipophilic but it has a low solubility in water, so that additional solvents such as ethanol must be used in application. […] There has therefore been a search for alternatives to BCNU.
(§2) It is assumed that this is attributable to the fact that when HECNU is used, there cannot be any carbamoyl reactions in the body because no carbamoylating metabolite is formed in its degradation in the body.

malignant brain tumors = conditions: phase II; cited from earlier work
gastric carcinomas = conditions: phase II; cited from earlier work
Carcinogenicity = format: in vivo; conditions: in comparison with BCNU
From the text: as §2

[5] = Gastrointestinal toxicity in patients; format: in vivo, human; conditions: nausea and vomiting in patients
Water solubility = format: physicochemical
From the text: as §1

glutathione reductase = target: T1, glutathione reductase (Homo sapiens, UniProt P00390); assay: Inhibition of glutathione reductase in the lungs; format: biochemical
T1 construct: from tissue; host or cells: lungs
T1 sequence (P00390 44-522): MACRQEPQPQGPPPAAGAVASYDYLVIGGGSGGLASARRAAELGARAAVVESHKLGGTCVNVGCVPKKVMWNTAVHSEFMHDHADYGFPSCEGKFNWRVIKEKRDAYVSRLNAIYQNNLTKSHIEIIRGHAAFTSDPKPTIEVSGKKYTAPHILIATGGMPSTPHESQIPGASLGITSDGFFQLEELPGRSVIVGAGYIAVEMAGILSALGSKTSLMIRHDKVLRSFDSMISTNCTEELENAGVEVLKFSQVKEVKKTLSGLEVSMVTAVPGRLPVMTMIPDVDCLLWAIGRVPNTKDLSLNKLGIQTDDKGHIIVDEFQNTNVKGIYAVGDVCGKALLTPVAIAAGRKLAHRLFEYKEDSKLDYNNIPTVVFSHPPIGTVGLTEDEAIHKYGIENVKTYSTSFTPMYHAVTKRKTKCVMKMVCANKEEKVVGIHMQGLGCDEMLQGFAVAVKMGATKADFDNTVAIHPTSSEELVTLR
From the text: as §2

pancreas lines = assay: In-vitro experiments with various pancreas lines; format: cell-based
Procedure: Inhibiting effects in the low μg/mL range were also found in in-vitro experiments conducted with various pancreas lines, an inhibiting effect normally being achieved with an HECNU concentration of less than 10 μg/mL.

[6] = single patient with pancreas tumor, dose 100 mg/m^2

For `O=NN(CCCl)C(=O)NCCO` [HECNU, 1-(2-chloroethyl)-1-nitroso-3-(2-hydroxyethyl)urea], the “Partial remission, share of treated patients” value (pancreatic carcinoma; four treated patients with pancreatic cancer) was “¼”, the Effect (pancreatic carcinoma; [6]) was “PR and MR” and the “Time to P (weeks)” value (pancreatic carcinoma; [6]) was 44 weeks and 23 weeks. The “Activity and response rate” value (colorectal carcinoma) was “only marginal activities and response rates”, the “Inhibiting effect on tumor growth” value [1] was “good to very good inhibiting effects on tumor growth” and the Toxicity profile ([2]; compared with other nitrosoureas) was “more favorable toxicity profile in comparison with other nitrosoureas”. For the same compound, the Activity ([2]; phase II, malignant supratentorial gliomas) was “demonstrated its activity”, the “Inhibiting effect in vitro” value [3] was “an inhibiting effect was also achieved” and the “Bone marrow, pulmonary and renal toxicity” value [4] was “greatly reduced bone marrow toxicity, pulmonary toxicity and renal toxicity”. The Antineoplastic activity (malignant brain tumors) was “significant antineoplastic activity”, the “Partial remission, patients treated” value (gastric carcinomas) was 31% and the Carcinogenicity (Carcinogenicity) was “much weaker carcinogen than BCNU”. For the same compound, the Gastrointestinal toxicity [5] was “only a low gastrointestinal toxicity”, the Water solubility (Water solubility) was “good water solubility” and the “Inhibition of glutathione reductase” value (glutathione reductase) was “does not inhibit glutathione reductase”. For the same compound, the “HECNU concentration achieving an inhibiting effect” value (pancreas lines) was “less than 10 μg/mL”.
